These results are taken from patent US20040072744A1, “Synthetic peptide as treatment for down's syndrome and schizophrenia” (priority 2002, published 2004).

Entries after “also recorded” stand apart in the source; their conditions may differ.

One data set relates to Alzheimer's patients. The note with it: oral administration, human clinical trials; cited from earlier work.
A further data set has as its system PC12 cells. Briefly: Neurite production on PC12 cells. The format is cell-based, rat. Here is the method: (§1) Adesh-10 (SEQ. ID. NO.: 2) is considered exemplary of the Adesh family of peptides and has been studied and tested to illustrate the invention. Venom derived NGF produced neurites on PC12 cells at 5 ng/ml while the concentration of Adesh-10 required was 1 μg/ml. NGF is toxic to PC 12 cells at the concentration of 5 μg/ml, while Adesh-10 is not toxic up to 100 μg/ml.

The subject of a further data set is PC 12 cells. Briefly: Toxicity to PC12 cells. In kind it is cell-based, rat. Here is the method:
as §1

The test system of a further data set is simian rotavirus (SA11). Briefly: Kinetics of replication of SA11 virus in MA104 cells in serum free medium with supplement. The note with it: 1 μg/ml trypsin; for SA11 virus titer Day 2: 1 μg/ml NGF or 5 μg/ml Adesh-10, day 2; for SA11 virus titer Day 4: 1 μg/ml NGF or 5 μg/ml Adesh-10, day 4; for SA11 virus titer Day 6: 1 μg/ml NGF or 5 μg/ml Adesh-10, day 6; for SA11 virus titer Day 8: 1 μg/ml NGF or 5 μg/ml Adesh-10, day 8. The format is cell-based.

Data set [1] has as its system influenza virus A/TAI strain. Briefly: Kinetics of replication of influenza A/TAI virus in MDCK cells in serum free medium with supplement. The format is cell-based. To be noted: 1 μg/ml trypsin; for A/TA1 virus titer Day 2: 1 μg/ml NGF or 5 μg/ml Adesh-10, day 2; for A/TA1 virus titer Day 4: 1 μg/ml NGF or 5 μg/ml Adesh-10, day 4; for A/TA1 virus titer Day 6: 1 μg/ml NGF or 5 μg/ml Adesh-10, day 6.

For a further data set, the system named is NGF. Briefly: NGF content in organ homogenates of orally treated mice by ELISA using anti-NGF. The format is in vivo, Balb/c male mice. To be noted: oral 100 μg/mouse for 7 days. Here is the method:
One year old Balb/c male mice (considered to be retired and non-productive) were given Adesh-10 orally for seven consecutive days, and the control set of mice received PBS. Two days after the completion of the treatment, the mice were sacrificed for organs. Organ homogenates were assayed for NGF content by simple enzyme-linked immunosorbent assay (ELISA), using anti-NGF.
Preparation of organ homogenates: Mice were used in compliance with U.S. Public Health Service policy on humane care and use of animals. One-year-old Balb/c male mice were divided into two groups each consisting of five. Mice in group I were given orally 100 μg/mouse in 50 μl volume of Adesh-10, the synthetic analog of NGF for seven consecutive days. The group II mice were given similar volume of PBS. Two days after the completion of the treatment with Adesh-10 or PBS the mice were sacrificed for organs. Organs from five of each group of mice were collected and one type of organ from five were pooled. The pool of the organs was homogenized in PBS by manual homogenizer. The homogenates were centrifuged and the supernatants for each pool organ were separated. Protein concentration for each supernatant was measured on spectrophotometer using a protein kit from Bio-Rad (USA catalogue 500-0006). The protein concentrations of the supernatants were adjusted to 100 μg/ml with PBS, as stocks for further testing.
Enzyme-linked immunosorbent assay (ELISA): ELISA tests were carried out in 96 well microtiter plates. The reagents for ELISA were purchased from Sigma-Aldrich Co. The stocks from mouse organs were diluted with carbonate-bicarbonate buffer of pH 9.4 to 10 μg/ml as coating antigen for ELISA. The wells of the plate were coated with antigen, 100 μl/well. The plate was left at room temperature (RT) overnight, after which it was emptied and washed three times (3×) with PBS. The wells were blocked with 250 μl/well of 3% fish skin gelatin. After 30 min. the plate was emptied and washed 3× with PBS. Anti-NGF made in rabbit was diluted from 1:300 in gelatin. Three wells received 100 μl of each dilution of anti-serum. Two-fold diluted anti-sera were used from 1:300 in triplicate. The antigen controls without antibody were incorporated. The plate was incubated at 37° C. in a humid incubator for 1 hr after which the plate was washed 3× with PBS. The horseradish peroxidase conjugated with rabbit IgG 100 μl/well were reacted, for 30 min. Finally, after washing, the wells of the plate were reacted with O-phenylenediamine-HCl (OPD) for color development. The plate was read after 30 min. and the OD was recorded at […]. The average of triplicate readings was expressed as ELISA titer/100 μl.
One year old Balb/c male mice were used for this research. Ten mice were used consisting of two groups five of each. Mice in group I were given orally 100 μg/mouse in 50 μl volume of Adesh-10, synthetic analog of NGF for seven consecutive days. The group II mice were given similar volume of PBS. Two days after the completion of the treatment the mice were sacrificed for organs. Organ homogenates were assayed for NGF by ELISA.

The subject of the next data set is Down syndrome children. Briefly: Treatment of Down syndrome children. In kind it is in vivo, human. To be noted: 100 μg/day, orally under the tongue or sub cutaneous injection. Here is the method: In Humans: Several Down syndrome children were treated with Adesh-10. Adesh-10 was administered in the amount of 100 μg/day, either orally under the tongue, or by sub cutaneous injection.

Take `O=C(CCn1cnc2c(=O)[nH]cnc21)Nc1ccc(C(=O)[O-])cc1.[K+]` [AIT-082]: in the data set on Alzheimer's patients, the “efficacy in Alzheimer's patients versus placebo” value is “no difference between Alzheimer's patients treated with AIT-082 and placebo”.
“N L G E H P V C D S (NLGEHPVCDS; CORRESPONDS TO POSITIONS 1-10 OF SEQ. ID. NO. 1) [Adesh-10]”: the “concentration required to produce neurites on PC12 cells” value with PC12 cells came to 1 µg/mL. For the same molecule, the “concentration toxic to PC 12 cells” value with PC 12 cells is above 100 µg/mL. Besides, in the data set with simian rotavirus (SA11), the “SA11 virus titer Day 2” value was 3 Log TCID50/ml, the “SA11 virus titer Day 4” value stood at 6 Log TCID50/ml, the “SA11 virus titer Day 6” value was 6.5 Log TCID50/ml and the “SA11 virus titer Day 8” value is 8 Log TCID50/ml. For the same molecule, in data set [1], the “A/TA1 virus titer Day 2” value is given as 4 Log TCID5/ml, the “A/TA1 virus titer Day 4” value is on record as 5.1 Log TCID5/ml and the “A/TA1 virus titer Day 6” value is recorded as 6.2 Log TCID5/ml. Also, the “NGF concentration in organ, Treated: Bone” value in the data set with NGF (Bone, one year old male mice, organs 2 days after treatment) was found to be 900 ELISA titer/100 μl. The “NGF concentration in organ, Treated: Brain” value in the data set with NGF (Brain, one year old male mice, organs 2 days after treatment) stood at 2400 ELISA titer/100 μl. In the data set on NGF (Heart, one year old male mice, organs 2 days after treatment), the “NGF concentration in organ, Treated: Heart” value is on record as 2400 ELISA titer/100 μl. Moreover, the “NGF concentration in organ, Treated: Kidney” value with NGF (Kidney, one year old male mice, organs 2 days after treatment) is listed as 1800 ELISA titer/100 μl. Also, the “NGF concentration in organ, Treated: Liver” value in the data set with NGF (Liver, one year old male mice, organs 2 days after treatment) is 2400 ELISA titer/100 μl. Besides, the “NGF concentration in organ, Treated: Lung” value in the data set with NGF (Lung, one year old male mice, organs 2 days after treatment) was 1800 ELISA titer/100 μl. Also, the “NGF concentration in organ, Treated: Muscle” value in the data set on NGF (Muscle, one year old male mice, organs 2 days after treatment) worked out at 2400 ELISA titer/100 μl. Moreover, the “NGF concentration in organ, Treated: Pancreas” value with NGF (Pancreas, one year old male mice, organs 2 days after treatment) was 1200 ELISA titer/100 μl. For the same molecule, the “NGF concentration in organ, Treated: Salivary” value in the data set on NGF (Salivary, one year old male mice, organs 2 days after treatment) is reported as 1200 ELISA titer/100 μl. Also, the “NGF concentration in organ, Treated: Skin” value with NGF (Skin, one year old male mice, organs 2 days after treatment) is 1200 ELISA titer/100 μl. In addition, the “NGF concentration in organ, Treated: Spleen” value in the data set on NGF (Spleen, one year old male mice, organs 2 days after treatment) turned out to be 1200 ELISA titer/100 μl. For the same molecule, the “NGF concentration in organ, Treated: Testis” value in the data set with NGF (Testis, one year old male mice, organs 2 days after treatment) is on record as 1800 ELISA titer/100 μl. Moreover, the “increase in NGF level versus control” value in the data set on NGF (brain, muscle and testis) was “twofold increase”. The “clinical effect in Down's syndrome children” value with Down syndrome children is “good results; also recorded: improved physical, vocal, learning and memory abilities”.
Trypsin [reference compound]: in the data set with simian rotavirus (SA11), the “SA11 virus titer Day 2” value was 6.5 Log TCID50/ml, the “SA11 virus titer Day 4” value turned out to be 7.2 Log TCID50/ml, the “SA11 virus titer Day 6” value is listed as 8 Log TCID50/ml and the “SA11 virus titer Day 8” value came out at 8.5 Log TCID50/ml. In addition, in data set [1], the “A/TA1 virus titer Day 2” value was found to be 5.6 Log TCID5/ml, the “A/TA1 virus titer Day 4” value was 6 Log TCID5/ml and the “A/TA1 virus titer Day 6” value is 6.5 Log TCID5/ml.

B1: NGF (protein)
chain: EDHPVHNLGEHSVCDSVSAWVTKTTATDIKGNTVTVMENVNLDNKVYKEYFFETKCKNPNPEPSGCRGIDSSHWNSYCTETDTFIKALTMEGNQASWRFIRIDTACVCVITKKTGN
In the case of B1, the “concentration producing neurites on PC12 cells” value in the data set with PC12 cells was 5 ng/mL. In addition, the “concentration toxic to PC 12 cells” value with PC 12 cells was 5 µg/mL. Moreover, in the data set with simian rotavirus (SA11), the “SA11 virus titer Day 2” value is 4 Log TCID50/ml, the “SA11 virus titer Day 4” value is recorded as 7 Log TCID50/ml, the “SA11 virus titer Day 6” value stood at 7.5 Log TCID50/ml and the “SA11 virus titer Day 8” value came out at 8.2 Log TCID50/ml. In data set [1], the “A/TA1 virus titer Day 2” value is 5 Log TCID5/ml, the “A/TA1 virus titer Day 4” value turned out to be 5.5 Log TCID5/ml and the “A/TA1 virus titer Day 6” value is recorded as 6.1 Log TCID5/ml.
